Values after ≈ are worked out from the molar mass of the structure shown.
Key:
[1] = Ophthalmic formulations based on in situ salt formation technology: composition and state (Example 8); assay type: physicochemical; conditions: pH ~7
Source text: (§1) In the following ophthalmic formulation preparation examples, "solution" refers to a clear, transparent liquid without visible insoluble matter. "Near-clear solution" refers to a liquid that appears close to a solution upon visual observation but may contain a small amount of insoluble particles or have a slightly opaque color. "Suspension" refers to a liquid that is visibly turbid or opaque. "Gel" refers to a completely or partially gel-like solid.
Example 8: Ophthalmic Formulation Based on In Situ Salt Formation Technology
Therefore, by preparing ophthalmic formulation compositions based on in situ salt formation technology, the solubility of the compounds can be further improved.
According to the formulation composition shown in the table below, weigh the compound powder, add 50% of the total volume (v/v) of a 30% (w/v) aqueous solution of hydroxypropyl-β-cyclodextrin (containing surfactant), and disperse by sonication; next, add an appropriate volume of pH regulator and sonicate until clear; then, add an equal volume of buffer containing solubilizer, viscosity modifier, etc., for dilution, and immediately vortex to mix; finally, add an appropriate volume of alkali regulator to adjust the solution pH to approximately 7, to prepare an eye drop formulation.
Using the in situ salt formation method, the compound is first dispersed in a solution containing Hydroxypropyl-β-cyclodextrin, then different acids are added to adjust the pH to 3-5, allowing the compound to fully or nearly fully dissolve, followed by adding the remaining components and adjusting the pH to approximately 7. […] Based on the visual dissolution effect after acid addition, methanesulfonic acid, acetic acid, and lactic acid were preliminarily selected as pH regulators. The preliminarily selected acids were used in subsequent tests with higher compound concentrations. Table 18 Formulation Composition and State

[2] = Thermodynamic solubility test; assay type: physicochemical; conditions: buffer solution, aqueous buffer, thermodynamic from solid; thermodynamic solubility, room temperature, 8 hours shaking; buffers pH 2.0, 6.5, 7.4 used, pH of the tabulated value not given
Summary of the method: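 Samples sonicated 10 min, shaken 8 h at room temperature, re-sonicated and centrifuged at 13000 rpm for 15 min. Supernatant recentrifuged and analysed by LC-MS, with concentrations quantified against a 3–5 point calibration curve.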

melanin = assay: Compound binding to melanin; assay type: in vitro ADME; conditions: cuttlefish (Sepia officinalis), melanin suspension (1 mg/mL), percentage of free drug (not bound to melanin), 2 µM compound, melanin 1 mg/mL in PBS pH 7.4, 37°C
Summary of the method: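 Compound at 2 µM final incubated with 1 mg/mL Sepia melanin in PBS pH 7.4, 37°C, 2 hours with shaking; blank in PBS with 0.1% BSA. Supernatant concentration by LC-MS/MS. Fb = 100 − (Ctest/Ccontrol) × 100%.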

[3] = Ophthalmic formulations based on polyethylene glycol series vehicles: composition and state (Example 7); assay type: physicochemical; conditions: Table 16: 2 mg/mL; Polyethylene Glycol 400 5, Poloxamer 188 1, Hydroxypropyl-β-cyclodextrin 6, Gellan Gum Gelrite 0.15, Tris-HCl Buffer (pH 6.8) 25mM
Source text: as §1
Example 7: Ophthalmic Formulations Based on Polyethylene Glycol Series Vehicles
According to the formulation composition shown in the tables below, weigh the compound powder, add it to polyethylene glycol 400, and sonicate until dissolved or nearly dissolved (heat to 50°C if necessary). Add this to a Tris-HCl buffer solution containing hydroxypropyl-β-cyclodextrin, poloxamer 188, and gellan gum (or other viscosity modifier), vortex to mix, and prepare into an eye drop formulation.

State Description ([1]; Table 20, Compound 10 mg/ml, 1M Methanesulfonic Acid 2%, Polyoxyethylene castor oil EL 1%, 0.5M Tris 2%) | State Description ([1]; Table 20, Compound 20 mg/ml, 1M Methanesulfonic Acid 4%, Polyoxyethylene castor oil EL 1%, 0.5M Tris 2%) | solubility at 8 h [2] | fraction unbound at 2 h, 2 µM (melanin) | State Description: pH [3] | State Description: state [3] | State Description ([1]; Table 19, Compound 5 mg/ml, 1M Benzenesulfonic Acid 1%, no Polyoxyethylene castor oil EL, no alkali added) | State Description ([1]; Table 19, Compound 5 mg/ml, 1M Methanesulfonic Acid 1%, Polyoxyethylene castor oil EL 1%, 0.5M Tris 0.5%) | State Description ([1]; Table 19, Compound 5 mg/ml, 1M Methanesulfonic Acid 1%, no Polyoxyethylene castor oil EL, 0.5M Tris 0.5%) | State Description ([1]; Table 19, Compound 10 mg/ml, 1M Acetic Acid 2%, no Polyoxyethylene castor oil EL, 0.5M Tris 1%) | State Description ([1]; Table 19, Compound 10 mg/ml, 1M Lactic Acid 2%, no Polyoxyethylene castor oil EL, 0.5M Tris 1%) | State Description ([1]; Table 19, Compound 20 mg/ml, 1M Methanesulfonic Acid 4%, Polyoxyethylene castor oil EL 1%, 0.5M Tris 1.5%) | Compound
near-clear solution | near-clear solution |  |  |  |  |  |  |  |  |  |  | O=C(NC1CC1)c1ccccc1Sc1ccc2c(/C=C/c3cc(OCCN4CCCC4)ccn3)n[nH]c2c1 [Compound I-110, N-cyclopropyl-2-({3-[(E)-2-{4-[2-(pyrrolidin-1-yl)ethoxy]pyridin-2-yl}ethenyl]-1H-indazol-6-yl}sulfanyl)benzamide]
 |  | 118 µg/mL (≈ 230 µM) | > 0.05 | ~7 | solution | solution | solution | near-clear solution | solution | solution | near-clear solution | O=C(NC1CC1)c1cccc(F)c1Sc1ccc2c(/C=C/c3ccc(CN4CCCC4)cn3)n[nH]c2c1 [Compound I-67, N-cyclopropyl-3-fluoro-2-({3-[(E)-2-{5-[(pyrrolidin-1-yl)methyl]pyridin-2-yl}ethenyl]-1H-indazol-6-yl}thio)benzamide]

Source: patent EP4781984A1 (Beyang Therapeutics Co., Ltd., priority 2023, dated 2025)
